Reference: patent US20230123334A1, “AMINO LIPID COMPOUND, PREPARATION METHOD THEREFOR, AND APPLICATION THEREOF” (SHENZHEN SHENXIN BIOTECHNOLOGY CO., LTD., priority 2020, published 2023)

What was measured:
[1] = tested on: BALB/c mice; assay: In vivo delivery of luciferase mRNA (Fluc mRNA) by lipid nanoparticles, in vivo imaging; conditions: 0.5 mg/kg Fluc mRNA, after 12 hours
Procedure: (§1) The amino lipid compound of the invention was mixed with DOPE, cholesterol and PEG2000-DMG in a molar ratio of 45:10:42.5:2.5, and dissolved in absolute ethanol such that the molar concentration of the amino lipid compound was 0.001-0.01 mmol/L. By using a microinjection pump, the resultant ethanol solution and a sodium acetate solution (50 mM, pH=4.0) in which luciferase mRNA (Fluc mRNA, TriLink) was dissolved were mixed in a volume ratio of 1:3 in a microchannel chip to prepare a crude solution of lipid nanoparticles, which was then dialyzed in 1×PBS at a controlled temperature of 4° C. for 6 h using a dialysis box (Fisher, MWCO 20,000) and filtered through a 0.22 μm microporous filter membrane before use. The mass ratio of the amino lipid compound to Fluc mRNA was about 10:1. The resultant solution of lipid nanoparticles (LNPs) was administered to the tested animals by subcutaneous administration.
(§2) The preparation method was the same as Formulation method 1, except that amino lipid compound, DSPC, cholesterol and PEG2000-DMG were used in a molar ratio of 50:10:38.5: 1.5. The resultant solution of lipid nanoparticles (LNPs) was administered to the tested animals by tail vein and intramuscular injection.
Animal Preparation: 6-week aged female BALB/c mice weighed about 20 g were selected and fed in a SPF-grade feeding room. Animal tests were conducted strictly according to the guidelines of national health institutions and the requirements of animal ethics.
In vivo delivery: 9 mice were assigned randomly to each group, and the lipid nanoparticle solution was injected by three routes of administration, i.e., subcutaneous, intramuscular and tail vein injection at a dosage of 0.5 mg/kg Fluc mRNA (3 mice for each route of administration). After 12 hours, 200 μL of 10 mg/mL potassium salt of […] (PerkinElmer) was injected into each mouse through the tail vein. After 10 min, the mice were placed under an in vivo imaging system (IVIS-200, Xenogen) to observe the total fluorescence intensity of each mouse and take photographs for record. The expression intensity of Fluc mRNA delivered by representative amino lipid compounds through the three routes of administration are shown in Table 5-7. DLin-MC3 was used as control.

[2] = tested on: HEK293 cells; assay: Preliminary screening as DNA vectors, GFP transfection of HEK293 cells; type: cell-based; conditions: HEK293 cells; lipid/DOPE liposome with 75 ng plasmid DNA (psin-EGFP-IRES-Puro); number of cells expressing GFP divided by total number of nuclei (Hoechst)
In short: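 Lipid + DOPE liposomes (NaOAc, pH 5.6) complexed w/ 75 ng psin-EGFP-IRES-Puro, 30 min RT; added to 3-5×10^4 HEK293/well, 37° C. Hoechst 0.2 μg/mL at 20-24 h, imaged after further 20-24 h. Efficiency = GFP+ cells / total nuclei.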

[3] = tested on: HEK293 cells; assay: Preliminary screening as mRNA vectors, EGFP mRNA transfection of HEK293 cells; type: cell-based; conditions: HEK293 cells, 96-well plates, EGFP mRNA 50 ng per well; percentage of GFP fluorescent cells relative to total number of cells (Hoechst)
In short: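 Each well of HEK293 cells received 50 ng of EGFP mRNA. Efficiency was expressed as percent GFP-expressing cells over Hoechst-defined total cell number.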

[4] = Particle size and PDI of lipid nanoparticles (Nano-ZSZEN3600, Malvern); type: physicochemical; conditions: LNPs; for Particle size (nm): Fluc mRNA
Procedure: as §1
Characterization of particle size: the particle size and PDI of the prepared lipid nanoparticles were determined by Nano-ZSZEN3600 (Malvern). 40 uL of LNP solution was taken for particle size measurement with circulation for three times, 30 s for each circulation.
as §2

[5] = Encapsulation rate of LNP RNA (Qubit RNA HS Assay kit); type: physicochemical; conditions: LNPs
Procedure: as §1
Detection of encapsulation rate: the concentration of LNP RNA was detected by Qubit® RNA HS Assay kit. The theoretical RNA concentration was given by the total amount of RNA input divided by the total volume of the final solution.
as §2

[6] = tested on: MCF7 cells; assay: Transfection of MCF7 cell line, mRNA vectors; type: cell-based; conditions: 50 ng EGFP mRNA per well
In short: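 MCF7 cells in DMEM with fetal bovine serum were transfected with 50 ng EGFP mRNA per well. Read-out was the percentage of GFP-positive cells among total Hoechst-stained nuclei, with Lipofectamine2000 as positive control.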

[7] = tested on: Hela cells; assay: Transfection of Hela cell line, DNA vectors; type: cell-based; conditions: 75 ng plasmid DNA, GFP cells / total cells
In short: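 Amino lipid/DOPE liposomes in sodium acetate pH 5.6 were complexed with 75 ng psin-EGFP-IRES-Puro plasmid for 30 min at room temperature, then mixed with 3-5×10^4 Hela cells in DMEM/10% FBS at 37° C. Hoechst stain after 20-24 h, imaging after a further 20-24 h. Efficiency = GFP-positive cells / total nuclei.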

[8] = tested on: Hela cells; assay: Transfection of Hela cell line, mRNA vectors; type: cell-based; conditions: 50 ng EGFP mRNA per well
In short: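 HeLa cells in DMEM with 10% FBS transfected with 50 ng EGFP mRNA per well. Readout is percentage of GFP-positive cells among total cells counted by Hoechst nuclear stain; Lipofectamine2000 served as positive control.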

[9] = tested on: MCF7 cells; assay: Transfection of MCF7 cell line, DNA vectors; type: cell-based; set-up: concentration or dose not given beside the values; conditions: plasmid DNA, GFP cells / total cells
In short: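 MCF7 cells in DMEM with fetal bovine serum were transfected in 96-well format. Read-out was the percentage of GFP-fluorescent cells among total cells counted by Hoechst nuclear stain. Lipofectamine2000 served as positive control.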

[10] = Formulation Method 1 (amino lipid:DOPE:cholesterol:PEG2000-DMG 45:10:42.5:2.5)
[11] = Formulation method 2 (amino lipid:DSPC:cholesterol:PEG2000-DMG 50:10:38.5:1.5)

Row | Structure (SMILES) | Fluorescence intensity (expression intensity of Fluc mRNA) ([1]; intramuscular administration) | Fluorescence intensity (expression intensity of Fluc mRNA) ([1]; subcutaneous administration) | Fluorescence intensity (expression intensity of Fluc mRNA) ([1]; tail vein administration) | Absolute DNA transfection efficiency in HEK293 cells [2] [%] | Absolute mRNA transfection efficiency in HEK293 cells [3] [%] | PDI ([4]; Formulation Method 1) | Particle size (nm) [4, 10] [nm] | PDI ([4]; Formulation method 2) | Particle size (nm) [4, 11] [nm] | Encapsulation rate ([5]; Formulation Method 1) [%] | Encapsulation rate ([5]; Formulation method 2) [%] | Absolute mRNA transfection efficiency in MCF7 cells [6] [%] | Absolute DNA transfection efficiency in Hela cells [7] [%] | Absolute mRNA transfection efficiency in Hela cells [8] [%] | Absolute DNA transfection efficiency in MCF7 cells [9] [%]
1 | CCCCCCCCCCCCCCCCSc1nc(NCCCN2CCN(C)CC2)nc(SCCCCCCCC)n1 [Compound S8S16D9] | 8.2E+06 | 4.2E+06 | 6.5E+06 | 6.7 | 1.5 | 0.01 | 96 ± 5 | 0.02 | 115 ± 5 | 98.7 | 99.4 |  |  |  | 
2 | CCCCCCCCCCCCCCCCSc1nc(NCCN2CCN(C)CC2)nc(SCCCCCCCCC)n1 [Compound S9S16D5] | 5.2E+06 | 4.2E+07 | 7.5E+06 | 23.5 | 47.8 | 0.04 | 152 ± 5 | 0.05 | 130 ± 5 | 99.1 | 99.6 | 32.0 | 11.7 | 11.7 | 26.6
3 | CCCCCCCCCCCCCCCCSc1nc(NCC2CCN(C)CC2)nc(SCCCCCCCCCC)n1 [Compound S10S16D10] | 3.2E+06 | 4.7E+07 | 2.9E+06 | 79.4 | 47.4 | 0.03 | 136 ± 5 | 0.04 | 125 ± 5 | 99.5 | 99.2 |  |  |  | 
4 | CCCCCCCCCCCCSc1nc(NCCCN2CCOCC2)nc(SCCCCCCCCCCC)n1 [Compound S11S12D8] | 4.7E+06 | 1.1E+07 | 3.8E+06 | 10.7 | 6.7 | 0.02 | 80 ± 5 | 0.01 | 90 ± 5 | 98.3 | 98.9 |  |  |  | 
5 | CCCCCCCCCCCCCNc1nc(NCCCN(C)C)nc(SCCCCCCCCCCCC)n1 [Compound S12N13D6] | 1.2E+06 | 8.6E+06 | 3.9E+06 |  |  | 0.05 | 89 ± 5 | 0.04 | 96 ± 5 | 99.0 | 99.2 |  |  |  | 
6 | CCCCCCCCCCCCCCCSc1nc(NCCCCCCCCCCC)nc(NCCN2CCN(C)CC2)n1 [Compound S15N11D5] | 3.7E+06 | 1.9E+08 | 3.7E+06 |  |  | 0.02 | 79 ± 5 | 0.01 | 95 ± 5 | 99.2 | 98.8 |  |  |  | 
7 | CCCCCCCCCCCCCCCCSc1nc(NCCCCCCCC)nc(NCC2CCN(C)CC2)n1 [Compound S16N8D10] | 3.9E+06 | 3.7E+08 | 3.2E+06 |  |  | 0.04 | 90 ± 5 | 0.03 | 120 ± 5 | 97.2 | 98.6 |  |  |  | 
8 | CCCCCCCCCCCCCCCCSc1nc(NCCCCCCCCC)nc(NCCN2CCCC2)n1 [Compound S16N9D3] | 4.3E+06 | 2.7E+07 | 5.3E+06 |  |  | 0.08 | 87 ± 4 | 0.06 | 127 ± 5 | 98.9 | 99.1 |  |  |  | 
9 | CCCCC/C=C\C/C=C\CCCCCCCCC(CCCCCCCC/C=C\C/C=C\CCCCC)OC(=O)CCCN(C)C [DLin-MC3, reference compound] | 2.7E+07 | 3.1E+06 | 2.7E+07 |  |  |  |  |  |  |  |  |  |  |  | 
